Legend:
[1] = Metabolic stability test in rat liver microsome; assay type: in vitro ADME
[2] = Metabolic stability test in human liver microsome; assay type: in vitro ADME; conditions: 37° C., 5 μM
Method: Human liver microsome (manufactured by Xenotech, H0620, final concentration (after dilution), 0.2 mg protein/mL) was suspended in 100 mM potassium phosphate buffer (pH 7.4, containing β-nicotinamide adenine dinucleotide phosphate: 1.3 mM, D-glucose-6-phosphate: 3.3 mM, magnesium chloride: 3.3 mM, glucose-6-phosphate dehydrogenase: 0.45 U/mL), and further mixed with a test compound dissolved in MeCN/DMSO (95/5) (final concentration 5 μM). The mixture was incubated at 37° C. for 10 min and 60 min, acetonitrile containing formic acid (final concentration 0.1%) was added, and the mixture was centrifuged. The test compound (unmodified) in the supernatant was measured by high performance liquid chromatography/mass spectrometry (LC/MS) (manufactured by Waters, LC: Acquity UPLC, MS:SQ Detector or TQ Detector). The residual ratio (%) was calculated from the obtained measurement value.

human PDHK2 (hPDHK2) = target: T1, human PDHK2 (hPDHK2) (Homo sapiens, UniProt Q15119); test: Inhibitory action of PDHK2 activity in vitro (residual PDH activity after kinase reaction); assay type: biochemical
T1 construct: made in house; host or cells: Escherichia coli BL21(DE3), pET17b vector
Method: The inhibitory action of PDHK activity was assessed indirectly by measuring the residual PDH activity after kinase reaction in the presence of a test compound.
In the case of human PDHK2 (hPDHK2, Genbank Accession No. BC040478.1), modified hPDHK2 cDNA wherein FLAG-Tag sequence was added to the N terminus of hPDHK2 cDNA clone (pReceiver-M01/PDK2-GeneCopoeia) was prepared by PCR and cloned into a vector (pET17b-Novagen). The recombinant construct was transformed into Escherichia coli (DH5α-TOYOBO). The recombinant clones were identified, and plasmid DNA was isolated and subjected to the DNA sequence analysis. One clone which had the expected nucleic acid sequence was selected for expression work.
For expression of hPDHK2 activity, Escherichia coli strain BL21(DE3) cells (Novagen) were transformed with the pET17b vector containing modified hPDHK2 cDNA. The Escherichia coli were grown to an optical density 0.6 ([…]) at 30° C. Protein expression was induced by the addition of 500 μmol/L isopropyl-β-thiogalactopyranoside. The Escherichia coli were cultured at 30° C. for 5 hr and harvested by centrifugation. Resuspension of the Escherichia coli paste was disrupted by a microfluidizer. FLAG-Tagged protein was purified using FLAG affinity gel. The gel was washed with 20 mmol/L HEPES-NaOH, 500 mmol/L sodium chloride, 1% ethylene glycol, and 0.1% Pluronic F-68 (pH 8.0), and the binding protein was eluted with 20 mmol/L HEPES-NaOH, 100 μg/mL FLAG peptide, 500 mmol/L sodium chloride, 1% ethylene glycol, and 0.1% Pluronic F-68 (pH 8.0). The eluted fractions containing FLAG-Tagged protein were pooled, dialyzed against 20 mmol/L HEPES-NaOH, 150 mmol/L sodium chloride, 0.5 mmol/L EDTA, 1% ethylene glycol, and 0.1% Pluronic F-68 (pH 8.0), and preserved at −80° C.
0.05 U/mL PDH and 0.8 μg/mL hPDHK2 were mixed in a buffer (50 mmol/L 3-morpholinopropanesulfonic acid (pH 7.0), 20 mmol/L dipotassium hydrogen phosphate, 60 mmol/L potassium chloride, 2 mmol/L magnesium chloride, 0.4 mmol/L EDTA, and 0.2% Pluronic F-68, 2 mmol/L dithiothreitol), and the mixture was incubated at 4° C. overnight to obtain a PDH/hPDHK2 complex. The test compounds were diluted with DMSO. […] DMSO (1.5 μL) was added to control wells instead of the test compound. […] The mixture was incubated at room temperature for 90 min, and the residual PDH activity was measured. The absorbance at 340 nm before and after PDH reaction was measured using a microplate reader to detect NADH produced by the PDH reaction. The hPDHK2 inhibition rate (%) of the test compound was calculated from the formula [{(PDH activity of test compound−PDH activity of control)/PDH activity of blank−PDH activity of control)}×100].

hERG = target: T2, hERG (Homo sapiens, UniProt Q12809); test: hERG whole cell patch clamp test; assay type: cell-based; conditions: human, HEK293 cells transfected with hERG, pH 7.4; concentration 10 μmol/L; read-out: hERG inhibition rate (%)
T2 construct: host or cells: HEK293
Method: (§1) Using human ether-a-go-go related gene (hERG)-transfected HEK293 cells (Cytomyx Limited), an influence on hERG current was examined according to the whole cell patch clamp technique. The hERG-transfected HEK293 cells were passaged using a CO2 incubator (BNA-111, TABAI ESPEC CORP.) under the set conditions of 37° C., 5% CO2, saturated humidity. Culture containers used were Collagen Type I Coated 75 cm^2 flask (4123-010, AGC TECHNO GLASS CO., Ltd.) and Collagen Type I Coated 35 mm culture dish (4000-010, AGC TECHNO GLASS CO., Ltd.). The culture medium used was E-MEM (Eagle Minimum Essential Medium (Earle's Salts, Nikken biomedical laboratory) added with 10% FCS (Fetal bovine serum, BioWest, L.L.C.) and 1% MEM Non-Essential Amino Acids Solution (NEAA, Invitrogen Corporation). Geneticin for the selection of hERG gene expressing cells was added thereto to a concentration of 400 μg/mL. As the cells for the measurement, 3×10^4 hERG-transfected HEK293 cells were plated on a 35 mm culture dish 4 to 7 days before measurement of the hERG current. The culture dish produced for the measurement contained the above-mentioned culture medium without geneticin (Invitrogen Corporation).
(§2) The highest evaluation concentration of each compound was determined from the highest concentration at which precipitation was not found in the standard extracellular fluid (NaCl: 140 mmol/L, KCl: 2.5 mmol/L, MgCl2: 2 mmol/L, CaCl2: 2 mmol/L, HEPES: 10 mmol/L, glucose: 10 mmol/L (adjusted to pH 7.4 with Tris-base)). As the application method, each solution to be applied was ejected from a Y-tube having a tip diameter of about 0.25 mm, which was adjacent (about 2 mm) to the cells, and applied to the cells. The ejection rate was about 0.4 mL/min.
(§3) The experiment was performed at room temperature under a phase contrast microscope. The 35 mm culture dish plated with the cells was set on a measurement apparatus, and the standard extracellular fluid was continuously applied to the cells from the Y-tube. A glass electrode for the measurement was filled with an intracellular fluid (Potassium Gluconate: 130 mmol/L, KCl: 20 mmol/L, MgCl2: 1 mmol/L, ATP-Mg: 5 mmol/L, EGTA: 3.5 mmol/L, HEPES: 10 mmol/L (adjusted to pH 7.2 with Tris-base)). A conventional whole cell patch clamp method was applied to the cells, and the maintenance electric potential was set to −80 mV. Under a fixed electric potential, the whole cell current was amplified by an amplifier for patch clamp (AXOPATCH-200B, Axon Instruments, Inc.), and the data was loaded into a computer (IMC-P642400, Intermedical Co., Ltd.) using a data acquisition analysis software (pCLAMP 9.2, Axon Instruments, Inc.).
(§4) The measurement of the hERG current was performed in the following two steps. In both cases, the hERG current was initiated by giving a command potential (maintenance electric potential −80 mV, prepulse+20 mV, 1.5 sec, test-pulse −50 mV, 1.5 sec).
(§5) Step (1): The above-mentioned command potential was given at 0.1 Hz for 2 min.
(§6) Step (2): The above-mentioned command potential was subjected to P/3 subtraction of pCLAMP 9.2 to remove leak current. This was repeated three times and an average thereof was taken as hERG current.
(§7) Subsequent to step (1), Step (2) was performed (about 3 min), and the maximum tail current obtained by applying a test-pulse to the hERG current obtained by the method of step (2) was taken as hERG current value. Hereafter, the operations of (1) and (2) were alternately repeated until completion of the experiment and the hERG current value was measured.
(§8) Stable hERG current value was recorded three times (about 10 min), and the standard extracellular fluid was instantaneously exchanged with each application fluid. The hERG current value was measured three times (about 10 min) in the same manner during perfusion of the application fluid, and the current value obtained by the 3rd measurement was taken as hERG current value after perfusion of the application fluid. […]

[3] = target: T3, hERG current (hERG-transfected HEK293 cells) (Homo sapiens, UniProt Q12809); test: hERG whole cell patch clamp test; assay type: cell-based; conditions: whole cell patch clamp, hERG-transfected HEK293 cells
T3 construct: host or cells: HEK293
Method: as §1, §2, §3, §4, §5, §6, §7, §8

T2 sequence (Q12809 whole entry): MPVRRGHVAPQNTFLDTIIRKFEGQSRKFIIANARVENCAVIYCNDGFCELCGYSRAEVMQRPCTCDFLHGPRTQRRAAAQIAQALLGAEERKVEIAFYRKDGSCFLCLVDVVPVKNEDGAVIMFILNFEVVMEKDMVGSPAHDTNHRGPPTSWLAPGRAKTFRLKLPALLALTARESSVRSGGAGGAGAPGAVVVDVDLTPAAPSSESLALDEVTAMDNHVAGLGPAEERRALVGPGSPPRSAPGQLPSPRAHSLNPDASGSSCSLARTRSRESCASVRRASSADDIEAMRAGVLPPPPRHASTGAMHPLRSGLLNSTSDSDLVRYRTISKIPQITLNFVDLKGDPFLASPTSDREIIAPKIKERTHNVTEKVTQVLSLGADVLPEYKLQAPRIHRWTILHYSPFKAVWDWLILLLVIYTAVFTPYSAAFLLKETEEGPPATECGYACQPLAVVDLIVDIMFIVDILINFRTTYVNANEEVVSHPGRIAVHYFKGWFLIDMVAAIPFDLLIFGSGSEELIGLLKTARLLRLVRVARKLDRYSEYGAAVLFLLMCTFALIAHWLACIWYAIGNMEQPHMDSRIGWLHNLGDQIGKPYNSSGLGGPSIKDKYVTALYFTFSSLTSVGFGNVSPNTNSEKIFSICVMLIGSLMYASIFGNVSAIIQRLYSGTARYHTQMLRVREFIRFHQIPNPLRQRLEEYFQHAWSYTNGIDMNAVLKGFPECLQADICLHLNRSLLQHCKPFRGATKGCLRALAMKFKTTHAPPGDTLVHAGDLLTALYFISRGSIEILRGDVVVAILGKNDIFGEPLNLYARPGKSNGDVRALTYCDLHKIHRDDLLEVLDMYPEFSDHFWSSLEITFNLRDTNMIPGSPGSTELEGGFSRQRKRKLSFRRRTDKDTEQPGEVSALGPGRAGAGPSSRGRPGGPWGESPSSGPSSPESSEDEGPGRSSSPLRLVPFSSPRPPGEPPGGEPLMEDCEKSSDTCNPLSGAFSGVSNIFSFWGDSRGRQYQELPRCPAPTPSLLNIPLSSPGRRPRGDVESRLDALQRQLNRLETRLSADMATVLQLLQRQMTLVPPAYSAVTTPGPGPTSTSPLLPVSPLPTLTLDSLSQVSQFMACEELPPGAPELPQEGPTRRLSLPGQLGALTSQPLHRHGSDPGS
T3 sequence (Q12809 whole entry): as above

stability in liver microsome (residual ratio %) ([1]; 10 min): 24.8% | stability in liver microsome (residual ratio %) ([1]; 60 min): 0.0% | stability in liver microsome (residual ratio %) ([2]; 10 min): 34.8% | stability in liver microsome (residual ratio %) ([2]; 60 min): 0.0% | IC50 (human PDHK2 (hPDHK2)): 5.1 nM
SMILES: NC(=O)Cn1cc(-c2cc(OCCC34CC5CC(CC(O)(C5)C3)C4)cc3c2-c2ccccc2[C@]3(O)C(F)(F)F)cn1 [compound (A), 2-(4-{(9R)-9-Hydroxy-2-[2-(3-hydroxyadamantan-1-yl)ethoxy]-9-(trifluoromethyl)-9H-fluoren-4-yl}-1H-pyrazol-1-yl)acetamide, reference compound]
inhibition at 10 μmol/L (hERG): 11.8% | IC50 [3]: > 10000 nM
